Among the data in PMC7535926, “Serine phosphorylation regulates the P-type potassium pump KdpFABC” (eLife, 2020) are IC50 values, retold here.

This experiment has as its target T1, KdpFABC (WT) (Escherichia coli, UniProt P03960).
T1 construct: gene kdpB; full-length kdpFABC operon on plasmid pSD107 (native promoter), 8x His tag at C-terminus of KdpC; expressed in E. coli TK2499; purified in decyl maltoside; KdpB Ser162 phosphate removed with lambda protein phosphatase; Potassium-transporting ATPase KdpC subunit; Potassium-transporting ATPase KdpF subunit
Put plainly: coupled-enzyme ATPase assay (pyruvate kinase / lactate dehydrogenase). It counts as biochemical.

pIC50: −log10 of the molar value.

T1 sequence (P03960 whole entry): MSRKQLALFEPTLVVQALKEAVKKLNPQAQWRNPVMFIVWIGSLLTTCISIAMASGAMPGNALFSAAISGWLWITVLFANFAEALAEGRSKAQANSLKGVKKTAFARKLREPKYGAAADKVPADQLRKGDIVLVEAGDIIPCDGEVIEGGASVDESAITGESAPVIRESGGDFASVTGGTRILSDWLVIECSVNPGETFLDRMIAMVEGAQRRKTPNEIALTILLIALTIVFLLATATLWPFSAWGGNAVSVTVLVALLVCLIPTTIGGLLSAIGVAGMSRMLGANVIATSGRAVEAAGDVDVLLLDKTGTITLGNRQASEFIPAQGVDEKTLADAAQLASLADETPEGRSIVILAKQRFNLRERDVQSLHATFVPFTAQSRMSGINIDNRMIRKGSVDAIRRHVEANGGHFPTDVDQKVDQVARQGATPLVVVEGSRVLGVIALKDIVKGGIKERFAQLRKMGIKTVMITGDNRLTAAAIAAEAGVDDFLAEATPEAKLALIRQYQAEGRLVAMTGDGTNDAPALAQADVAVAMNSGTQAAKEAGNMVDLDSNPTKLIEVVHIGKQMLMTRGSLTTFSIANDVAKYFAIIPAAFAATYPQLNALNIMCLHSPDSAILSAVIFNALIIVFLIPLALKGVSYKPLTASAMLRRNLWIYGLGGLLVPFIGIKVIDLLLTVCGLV
T1 sequence (P03959 whole entry partner): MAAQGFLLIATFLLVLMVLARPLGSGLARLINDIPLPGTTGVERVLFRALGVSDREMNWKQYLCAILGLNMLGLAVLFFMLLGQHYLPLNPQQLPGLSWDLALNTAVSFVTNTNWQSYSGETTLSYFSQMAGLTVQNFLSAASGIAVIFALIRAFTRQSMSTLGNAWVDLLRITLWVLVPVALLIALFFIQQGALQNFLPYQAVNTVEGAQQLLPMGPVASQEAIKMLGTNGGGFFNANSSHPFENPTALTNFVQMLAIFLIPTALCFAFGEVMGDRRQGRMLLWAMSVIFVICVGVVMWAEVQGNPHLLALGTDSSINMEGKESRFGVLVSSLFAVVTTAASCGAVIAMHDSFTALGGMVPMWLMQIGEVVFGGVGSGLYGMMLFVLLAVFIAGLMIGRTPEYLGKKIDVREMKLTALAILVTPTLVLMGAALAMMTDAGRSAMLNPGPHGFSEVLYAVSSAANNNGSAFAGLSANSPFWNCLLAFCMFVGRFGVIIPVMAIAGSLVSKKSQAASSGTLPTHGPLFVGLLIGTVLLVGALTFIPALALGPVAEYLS
T1 sequence (P03961 whole entry partner): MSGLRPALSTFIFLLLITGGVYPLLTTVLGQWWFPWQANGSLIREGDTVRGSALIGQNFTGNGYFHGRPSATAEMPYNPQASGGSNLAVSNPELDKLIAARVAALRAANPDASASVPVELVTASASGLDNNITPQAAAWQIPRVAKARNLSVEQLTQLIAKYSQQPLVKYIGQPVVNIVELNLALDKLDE
T1 sequence (P36937 whole entry partner): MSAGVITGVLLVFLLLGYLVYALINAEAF

A word on the pIC50: it is the IC50 on a negative log10 scale, so that one unit is a factor of ten. A high value points to a small IC50. Take `[O]=[V]([OH])([OH])[OH]` [orthovanadate]: the negative logarithm of the IC50 (pIC50) was 5.08.
